Reference: patent US20010047099A1, “4-aminopicolinates and their use as herbicides” (priority 2000, published 2001)
Where two headings read alike, the source gives them in different places.

Experiments:
Format in all cases: in vivo
[1] = test system: Rox orange sorghum (sorghum bicolor); assay: Postemergence herbicidal activity; details: post-emergence, 336 h
How it was run: (§1)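 Greenhouse plants at first or second true leaf stage sprayed to coverage with compound in acetone/water/isopropanol/DMSO/crop oil/surfactant mixture; 1 ppm ≈ 1 g/Ha. Plants sub-irrigated afterward. Injury scored visually after 2 weeks versus untreated plants, 0 (none) to 100% (complete kill).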

[2] = test system: barnyardgrass (Echinochloa crus-galli); assay: Postemergence herbicidal activity; details: for inhibition at 125 ppm: Echinochloa crus-galli, post-emergence, 336 h, Table 2, rate 125 ppm, after 2 weeks, read-out: POSTMERGENCE HERBICIDAL ACTIVITY % CONTROL ECHCG; for post emergent evaluation - % control ECHCG: Table 3, weeds in rice, rate 250 ppm
How it was run: as §1

[3] = test system: blackgrass (Alopecurus myosuroides); assay: Postemergence herbicidal activity; details: post-emergence, 336 h
How it was run: as §1

[4] = test system: crabgrass (Digitaria sanguinalis); assay: Postemergence herbicidal activity; details: post-emergence, 336 h
How it was run: as §1

[5] = test system: giant foxtail (Setaria faberi); assay: Postemergence herbicidal activity; details: post-emergence, 336 h
How it was run: as §1

[6] = test system: lambsquarters (Chenopodium album); assay: Postemergence herbicidal activity; details: for inhibition at 125 ppm: Chenopodium album, post-emergence, 336 h, Table 2, rate 125 ppm, after 2 weeks, read-out: POSTMERGENCE HERBICIDAL ACTIVITY % CONTROL CHEAL
How it was run: as §1

[7] = test system: pigweed (Amaranthus retroflexus); assay: Postemergence herbicidal activity; details: Amaranthus retroflexus, post-emergence, 336 h, Table 2, rate 125 ppm, after 2 weeks, read-out: POSTMERGENCE HERBICIDAL ACTIVITY % CONTROL AMARE
How it was run: as §1

[8] = test system: velvetleaf (Abutillon theophrasti); assay: Postemergence herbicidal activity; details: Abutilon theophrasti, post-emergence, 336 h, Table 2, rate 125 ppm, after 2 weeks, read-out: POSTMERGENCE HERBICIDAL ACTIVITY % CONTROL ABUTH
How it was run: as §1

viola (Viola tricolor) = assay: Postemergence herbicidal activity; details: post-emergence, 336 h
How it was run: as §1

wild oats (Avena fatua) = assay: Postemergence herbicidal activity; details: post-emergence, 336 h
How it was run: as §1

rice (Oryza sativa) = assay: Postemergence herbicidal activity, selectivity to rice; details: Table 3; crop (rice); rate 250 ppm
Description: Seeds of the desired test plant species were planted in Grace-Sierra MetroMix® 306 planting mixture, which typically has a pH of 6.0 to 6.8 and an organic matter content of about 30 percent, in plastic pots with a surface area of 64 square centimeters. When required to ensure good germination and healthy plants, a fungicide treatment and/or other chemical or physical treatment was applied. The plants were grown for 7-21 days in a greenhouse with an approximate 15 hr photoperiod which was maintained at about 23-29° C. during the day and 22-28° C. during the night. Nutrients and water were added on a regular basis and supplemental lighting was provided with overhead metal halide 1000-Watt lamps as necessary. The plants were employed for testing when they reached the first or second true leaf stage.
A weighed amount, determined by the highest rate to be tested, of each test compound was placed in a 20 mL glass vial and was dissolved in 4 mL of a 97:3 v/v (volume/volume) mixture of acetone and dimethyl sulfoxide (DMSO) to obtain concentrated stock solutions. […] The concentrated stock solutions obtained were diluted with an aqueous mixture containing acetone, water, isopropyl alcohol, DMSO, Atplus 411F crop oil concentrate, and Triton X-155 surfactant in a 48.5:39:10:1.5:1.0:0.02 v/v ratio to obtain spray solutions of known concentration. The solutions containing the highest concentration to be tested were prepared by diluting 2 mL aliquots of the stock solution with 13 mL of the mixture and lower concentrations were prepared by serial dilution of the stock solution. […]
The treated plants and control plants were placed in a greenhouse as described above and watered by sub-irrigation to prevent wash-off of the test compounds. After 2 weeks the condition of the test plants as compared with that of the untreated plants was determined visually and scored on a scale of 0 to 100 percent where 0 corresponds to no injury and 100 corresponds to complete kill.

[9] = test system: White Clover (Trifolium repens); assay: Range & Pasture Crop Testing (postemergence track sprayer); details: Table 10
How it was run: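 Postemergence track-sprayer application at 187 L/ha, compounds formulated in 97:3 acetone:DMSO with 0.25% X-77, five rates (X serially diluted to 1/16×). Visual percent control (0–100 scale, burn down) rated 3 weeks after treatment; GR50/GR80 derived by probit analysis.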

[10] = Table 2, rate 125 ppm, after 2 weeks, read-out: POSTMERGENCE HERBICIDAL ACTIVITY % CONTROL SORBI
[11] = Table 2, rate 125 ppm, after 2 weeks, read-out: POSTMERGENCE HERBICIDAL ACTIVITY % CONTROL ALOMY
[12] = Table 2, rate 125 ppm, after 2 weeks, read-out: POSTMERGENCE HERBICIDAL ACTIVITY % CONTROL DIGSA
[13] = Table 2, rate 125 ppm, after 2 weeks, read-out: POSTMERGENCE HERBICIDAL ACTIVITY % CONTROL SETFA
[14] = Table 2, rate 125 ppm, after 2 weeks, read-out: POSTMERGENCE HERBICIDAL ACTIVITY % CONTROL VIOTR
[15] = Table 2, rate 125 ppm, after 2 weeks, read-out: POSTMERGENCE HERBICIDAL ACTIVITY % CONTROL AVEFA

**Q.** What does the source list for Nc1cc(Cl)nc(C(=O)O)c1Cl [Compound 1, 4-Amino-3,6-dichloropyridine-2-carboxylic acid]?
**A.** inhibition at 125 ppm ([1]; read-out: PO[…] % CONTROL SORBI, Table 2, rate 125 ppm, after 2 weeks, read-out: POSTMERGENCE HERBICIDAL ACTIVITY % CONTROL SORBI): 50%; inhibition at 125 ppm ([2]; read-out: PO[…] % CONTROL ECHCG): 45%; post emergent evaluation - % control ECHCG [2]: 75%; inhibition at 125 ppm ([3]; read-out: PO[…] % CONTROL ALOMY, Table 2, rate 125 ppm, after 2 weeks, read-out: POSTMERGENCE HERBICIDAL ACTIVITY % CONTROL ALOMY): 50%; inhibition at 125 ppm ([4]; read-out: PO[…] % CONTROL DIGSA, Table 2, rate 125 ppm, after 2 weeks, read-out: POSTMERGENCE HERBICIDAL ACTIVITY % CONTROL DIGSA): 60%; inhibition at 125 ppm ([5]; read-out: PO[…] % CONTROL SETFA, Table 2, rate 125 ppm, after 2 weeks, read-out: POSTMERGENCE HERBICIDAL ACTIVITY % CONTROL SETFA): 75%; inhibition at 125 ppm ([6]; read-out: PO[…] % CONTROL CHEAL): 100%; inhibition at 125 ppm ([7]; read-out: PO[…] % CONTROL AMARE): 95%; inhibition at 125 ppm ([8]; read-out: PO[…] % CONTROL ABUTH): 70%; inhibition at 125 ppm (viola (Viola tricolor); read-out: PO[…] % CONTROL VIOTR, Table 2, rate 125 ppm, after 2 weeks, read-out: POSTMERGENCE HERBICIDAL ACTIVITY % CONTROL VIOTR): 80%; inhibition at 125 ppm (wild oats (Avena fatua); read-out: PO[…] % CONTROL AVEFA, Table 2, rate 125 ppm, after 2 weeks, read-out: POSTMERGENCE HERBICIDAL ACTIVITY % CONTROL AVEFA): 50%; post emergent evaluation - % control ORYZA (rice (Oryza sativa)): 10%

**Q.** Which results are given for CCOC(=O)c1nc(Cl)cc(N)c1Cl [Compound 4, ethyl 4-amino-3,6-dichloropyridine-2-carboxylate]?
**A.** inhibition at 125 ppm [1, 10]: 40%; inhibition at 125 ppm [2]: 50%; inhibition at 125 ppm [3, 11]: 40%; inhibition at 125 ppm [4, 12]: 70%; inhibition at 125 ppm [5, 13]: 75%; inhibition at 125 ppm [6]: 100%; inhibition at 125 ppm [7]: 100%; inhibition at 125 ppm [8]: 70%; inhibition at 125 ppm (viola (Viola tricolor); [14]): 70%; inhibition at 125 ppm (wild oats (Avena fatua); [15]): 40%; GR20 TRFRE [9]: <17.5 g/ha

**Q.** Which inhibition at 125 ppm [1, 10] does the source give for Nc1cc(Br)nc(C(=O)O)c1Cl [Compound 14, 4-Amino-6-bromo-3-chloropyridine-2-carboxylic acid] here?
**A.** 60%

**Q.** What about the inhibition at 125 ppm [2] of the same molecule?
**A.** 65%

**Q.** What about the “post emergent evaluation - % control ECHCG” value [2] of the same molecule?
**A.** 65%

**Q.** And the inhibition at 125 ppm [3, 11]?
**A.** 50%

**Q.** And the inhibition at 125 ppm [4, 12]?
**A.** 65%

**Q.** And the inhibition at 125 ppm [5, 13]?
**A.** 65%

**Q.** And the inhibition at 125 ppm [6]?
**A.** 95%

**Q.** And the “Post-emergent Evaluation - % control CHEAL” value ([6]; Table 5, rate 250 ppm)?
**A.** 70%

**Q.** And the inhibition at 125 ppm [7]?
**A.** 90%

**Q.** What about the inhibition at 125 ppm [8] of the same molecule?
**A.** 85%

**Q.** What about the inhibition at 125 ppm (viola (Viola tricolor); [14]) of the same molecule?
**A.** 75%

**Q.** And the inhibition at 125 ppm (wild oats (Avena fatua); [15])?
**A.** 40%

**Q.** What about the “post emergent evaluation - % control ORYZA” value (rice (Oryza sativa)) of the same molecule?
**A.** 10%

**Q.** For COC(=O)c1nc(Cl)cc(N)c1Cl [Compound 3, methyl 4-amino-3,6-dichloropyridine-2-carboxylate], which “GR20 TRFRE” value [9] is on record?
**A.** <17.5 g/ha

**Q.** For Nc1c(F)c(Cl)nc(C(=O)O)c1Cl [Compound 19, 4-Amino-3,6-dichloro-5-fluoropyridine-2-carboxylic acid], which inhibition at 125 ppm [1, 10] is on record?
**A.** 10%

**Q.** What about the inhibition at 125 ppm [2] of the same molecule?
**A.** 10%

**Q.** What about the inhibition at 125 ppm [3, 11] of the same molecule?
**A.** 20%

**Q.** What about the inhibition at 125 ppm [4, 12] of the same molecule?
**A.** 30%

**Q.** What about the inhibition at 125 ppm [5, 13] of the same molecule?
**A.** 20%

**Q.** And the inhibition at 125 ppm [6]?
**A.** 95%

**Q.** And the inhibition at 125 ppm [7]?
**A.** 60%

**Q.** What about the inhibition at 125 ppm [8] of the same molecule?
**A.** 50%

**Q.** What about the inhibition at 125 ppm (viola (Viola tricolor); [14]) of the same molecule?
**A.** 50%

**Q.** And the inhibition at 125 ppm (wild oats (Avena fatua); [15])?
**A.** 20%
